Experimental data as given in patent US20210106582A1, “COMPOUNDS AND PHARMACEUTICAL COMPOSITIONS THEREOF FOR USE IN THE TREATMENT OF FIBROTIC DISEASES” (Galapagos NV, priority 2017, published 2021).
“And” between values parts separate entries of the source, which are not always exact repeats. Identical values can stand only once.

Key:
Type in all cases: in vivo
[1] = test system: female C57BL/6J mice, lung fibrosis induced by radiation; experiment: Radiation induced fibrosis mice model; conditions: individual animals, irradiated lung, nintedanib 60 mg/kg QD PO D1-D14
Experimental: Pneumonitis and lung fibrosis are the major radiation-induced complications following thoracic radiotherapy, which is one of the major treatment of lung and breast cancers, lymphomas and hematopoietic transplant conditioning.
The objective of this model is to evaluate the effect of a compound of the invention in lung fibrosis induced by radiation in mice. (Bickelhaupt et al., 2017)
7 weeks old (18/22 gr) female C57BL/6J mice from Charles River (France) are maintained on 12 h light/dark cycle at 22° C. with ad libidum access to tap water and food.
The test compounds are dissolved/suspended in appropriate vehicle prior to using and then kept light-free, under agitation at room temperature.
The dose volume administered is 10 mL/kg and the volume is adapted following mean body weight (BW) of the group as follows: 200 μL if mean BW<22.5 g, 250 μL if mean BW≥22.5 g; 300 μL if mean BW>27.5 g.
On day 1 of week 1, the animals are exposed at the thorax to a 17 Gray irradiation dose, under isoflurane anesthesia. […]
Body weight are recorded once a week, and on Day 14, lung function measurement under anesthesia is realized by Flexivent (Devos et al., 2017) for all groups before sacrifice.
At sacrifice on Day 14, the lungs are collected and fixed in 4% formaldehyde for 24 h before embedding in paraffin. […] The anti-collagen I antibody is detected and amplified by ImmPress kit (Vector Laboratories, Cat. No: MP-7401). The immunostained sections are then scanned (Nanozoomer 2.0HT, Hamamatsu) before quantification by image analysis (CaloPix software, TRIBVN Healthcare). Data are expressed as percentage collagen I area per area of lung tissue.
Values for all mice from the same group are averaged. Data are expressed as mean±sem and are compared with a one-way ANOVA followed by Dunnett multiple comparison post hoc test. […]
Manganese superoxide dismutase (MnSOD), located in mitochondria, catalyzes the conversion of superoxide into H2O2, and is a marker of antioxidant response induced by oxidative stress. MnSOD expression is measured immunohistochemically following a protocol adapted from Inghilleri et al. (Inghilleri et al., 2006).
At sacrifice on Day 14, the lungs are collected and fixed in 4% formaldehyde for 24 h before embedding in paraffin. […] The anti-MnSOD antibody is detected by an anti-rabbit biotinylated antibody (Vector Laboratories, Cat. No: BA-1100) amplified by avidin-biotin peroxidase (Vector Laboratories, Cat. No: PK-6100). […] The immunostained sections counterstained with Gill's hematoxylin are then scanned (Nanozoomer 2.0HT, Hamamatsu) before quantification by image analysis (CaloPix software, TRIBVN Healthcare). Data are expressed as percentage MnSOD stained area per area of lung tissue.

[2] = test system: C57BL/6N male mice, bleomycin induced pulmonary fibrosis; experiment: Therapeutic bleomycin induced pulmonary fibrosis 21-day mice model; conditions: individual animals, BLM, nintedanib 60 mg/kg QD PO D7-D21
Experimental: The aim of the study is to test the efficacy of a test compound at three different doses in a 21-day model of bleomycin induced pulmonary fibrosis in mice.
11 week-old C57BL/6N male mice from Charles River (Italy) are maintained on 12 h light/dark cycle at 22° C. with ad libidum access to tap water and food.
On day 0, all mice in groups 2-4 receive a 1.5 U/kg oropharyngeal administration of bleomycin (BLM) to induce pulmonary fibrosis Animals in group 1 are not administered bleomycin, but instead receive a single dose of saline via the oropharyngeal route, and are considered sham control mice.
Animals are examined clinically twice daily. List of clinical signs and parameters are indicated in humane endpoints table. Animals are weighed daily starting from DO.
On day 21, lung functionality is determined. After deep anesthesia induced by an intraperitoneal injection (10 mL/kg) of a solution of xylazine (5 mg/kg) and ketamine (75 mg/kg), the trachea is exposed through midline incision and a cannula is inserted. Mice are ventilated with a tidal volume of 10 mL/kg at a frequency of 150 breaths/minute. FlexiVent (SCIREQ®) perturbations are performed three times. Deep Inflation and Pressure-Volume loops (PV loops) with stepwise increasing pressure are performed to measure the Inspiratory Capacity and stepwise pressure-driven perturbation (PVs-P). PV loops between 0 and 30 cm H2O are generated to obtain Total Lung Capacity (A). A snapshot perturbation maneuver is imposed, which is a threefold sinusoidal wave of in- and expiration controlled by the ventilator, resulting in resistance (Rrs), compliance (Crs), and elastance (Ers) of the whole respiratory system (airways, lung and chest wall). A value for each group is calculated with average FlexiVent-validated measurements recorded in each individual subject.
Then, two hours after the last dose of test substance and nintedanib, mice are sacrificed by anesthetic overdose. The lungs are excised and weighed individually. The lungs are then placed into marked bottles containing 10% buffered formalin for further histopathological evaluation.
Body weight data and lung weight data are processed using MS Excel. Statistical analysis and graphical presentation are performed using GraphPad Prism software (version 5.04).
For histopathological evaluation, whole lungs are embedded in paraffin and stained with Mallory's trichrome.
Pulmonary histological changes are assessed using Matsuse's modification of Ashcroft score (Ashcroft et al., 1988; Matsuse et al., 1999). Statistical analysis and graphical presentation is performed using GraphPad Prism software (version 5.04). Mann-Whitney test is employed.
Differences between groups are considered statistically significant when p<0.05.

[3] = test system: male C57BL/6 mice fed a Methionine and Choline-deficient (MCD) diet; experiment: MCD model (methionine and choline deficient diet, NASH); conditions: individual animals, 30 mg/kg q.d. p.o., MCD diet 8 wk
Experimental: The methionine and choline deficient (MCD) diet model is used to produce a severe phenotype of NASH in […] (Santhekadur et al., 2017), and is used to evaluate the compounds of the invention.
At induction, 8 weeks-old male C57BL/6 mice (Janvier Labs, France) maintained at 22° C.±2° C. and humidity at 55%±10%, with a 12-hrs dark/light cycle are fed a standard diet (chow (A04C-10, Safe, France) or a Methionine and Choline-deficient (MCD) diet (EFTD.90262, Ssniff, Soest, Germany) for 8 weeks. All animals have access to filtered tap drinking water.
Four weeks after the induction, the animals are either assigned to a control-group or a test-group.
Test group animals are dosed with the a test compound, i.e. Compound A (CpdA) or Compound B (CpdB), at 30 mg/kg, q.d., p.o. formulated in methylcellulose 0.5%, 1 equivalent HCl. The control groups receives a similar volume of vehicle (10 mL/kg), i.e. the standard diet for control group 1 (C1) and the MCD diet for control group 2 (C2). Mice are randomly assigned to a treatment group according to their body weight in order to ensure a homogenous reparation.
After sacrifice (week 8), the activity of the test compound on the development of NASH is assessed by plasma ALT and AST levels and in liver by histopathological examination of fibrosis and steatosis (Sirius red, Oil Red O), collagen (OH-Pro) and triglycerides content and expression of fibrotic and inflammatory genes.
In addition, the NAS score is determined to further evaluate the compounds with respect to their effect on diet induced NASH. The nonalcoholic fatty liver disease activity scoring (NAS) has been proposed and accepted as a tool to measure changes in NAFLD during therapeutic trials (Brunt et al., 2011; Kleiner et al., 2005).
The NAS score (0-8) is defined as the sum of the steatosis score (0-3), lobular inflammation score (0-3), ballooning score (0-2). A NAS score of ≥5 is indicative of a NASH diagnostic.

[4] = test system: male C57BL/6 mice fed CDAHF diet; experiment: CDAHFD model (choline-deficient, L-amino acid-defined, high-fat diet); conditions: individual animals, CDAHFD 10W, 30 mg/kg q.d. p.o.

SMILES: COC(=O)c1ccc2c(c1)NC(=O)/C2=C(\Nc1ccc(N(C)C(=O)CN2CCN(C)CC2)cc1)c1ccccc1 [nintedanib]
- Type I collagen stained area fraction ([1]; Figure 15): 10.5% (2×) and 7.6% and 7.1% and 6.5% and 11.0% and 8.2% and 9.3% and 8.9% and 13.7%
- MnSOD stained area fraction ([1]; Figure 16): 1.19% and 0.75% and 0.25% and 0.50% and 0.79% and 0.62% and 0.69% and 0.92% and 0.53% and 1.11%
- Compliance of the Respiratory System ([2]; Figure 14 panel B): 0.039 mL/cmH2O (2×) and 0.031 mL/cmH2O and 0.032 mL/cmH2O (2×) and 0.040 mL/cmH2O and 0.027 mL/cmH2O (3×) and 0.034 mL/cmH2O and 0.035 mL/cmH2O and 0.045 mL/cmH2O and 0.015 mL/cmH2O
- Elastance of the Respiratory System ([2]; Figure 14 panel C): 25.83 cmH2O/mL and 32.61 cmH2O/mL and 31.04 cmH2O/mL and 25.16 cmH2O/mL and 37.06 cmH2O/mL and 36.60 cmH2O/mL and 31.06 cmH2O/mL and 29.07 cmH2O/mL and 37.31 cmH2O/mL and 28.26 cmH2O/mL and 25.68 cmH2O/mL and 22.39 cmH2O/mL and 68.28 cmH2O/mL
- Ashcroft Score ([2]; Matsuse's modification, Figure 13): 2.0 and 2.3 and 2.8 and 3.2 and 3.7 (2×) and 3.5 (4×) and 3.0 (2×) and 3.4 and 2.5 and 2.4
- Inspiratory Capacity ([2]; day 21 FlexiVent, Figure 14 panel A): 0.69 mL and 0.57 mL and 0.62 mL and 0.71 mL and 0.48 mL and 0.58 mL and 0.68 mL and 0.53 mL and 0.56 mL and 0.76 mL and 0.78 mL and 0.33 mL

SMILES: Cc1c2n(c(OC[C@@H]3COCCO3)cc1=O)CCc1cc(OCC(F)(F)F)ccc1-2 [Compound B, 4-[[(2S)-1,4-dioxan-2-yl]methoxy]-1-methyl-9-(2,2,2-trifluoroethoxy)-6,7-dihydrobenzo[a]quinolizin-2-one]
- TIMP1 NRQ gene expression ([3]; NRQ scaled versus disease, Fig 8 Panel B): 0.3 (3×) and 0.4 (2×) and 0.5 and 1.7 (2×) and 1.2 and 1.4
- Col1a NRQ gene expression ([3]; dosing from week 4, Normalised Relative Quantity scaled versus disease, FIG. 8 Panel A): 0.5 and 2.0 and 1.3 and 1.5 (2×) and 0.4 and 0.3 (2×) and 0.2 (2×)
- TNfα NRQ gene expression ([3]; liver, NRQ scaled versus disease, Fig 9 Panel A): 0.4 (2×) and 0.7 and 1.1 (2×) and 0.8 and 0.9 and 0.6 and 0.3 (2×)
- CC12 NRQ gene expression ([3]; liver, NRQ scaled versus disease, Fig 9 Panel B): 0.8 and 0.3 and 0.7 (2×) and 1.2 (2×) and 0.9 (2×) and 1.5 and 0.5
- NAS scoring data ([3]; total NAS score (0-8), Fig 10): 5.0 and 7.0 (2×) and 6.0 (7×)

SMILES: CSc1ccc(C(=O)/C=C/c2cc(C)c(OC(C)(C)C(=O)O)c(C)c2)cc1 [CpdC, elafibranor, reference compound]
- Col1a1 expression profiles (NRQ-scaled versus Disease-Vehicle) ([4]; Fig 12 panel A): 0.07 and 0.06 and 0.48 and 0.15 and 0.09 and 0.43 and 0.61 and 0.17
- TNFα expression profiles (NRQ-scaled versus Disease-Vehicle) ([4]; Figure 12 panel B): 0.45 and 0.19 and 0.41 and 0.75 and 0.55 and 0.32 (2×) and 0.26 and 0.52
- Fibrosis (Sirius red area %) ([4]; liver, Figure 11): 0.45% and 0.19% and 0.41% and 0.75% and 0.55% and 0.32% (2×) and 0.26% and 0.52%
